Laboratory results as given in PubChem BioAssay AID1963420 (Molecular Pharmacology Branch, DTP, NCI, 2024).
Blank lines part the entries; values can stand above or below the compound they belong to.

Tested on: 494315-158-R-J1-PDC complex spheroid growth, percent test/control
Experiment: Anticancer human tumor 494315-158-R-J1-PDC patient-derived soft tissue sarcoma cell line growth inhibition [Asc]
Conditions: for viability, T/C: stronger effect = lower value
Outline: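 Spheroid model: tumor line + HUVEC + hMSC. Single agents and combinations; top conc. at/near clinical Cmax (10 microM if undetermined), half-log dilutions. DMSO stocks at 800-fold test concentration.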

[1] = curve of first compound, second compound 0.1 µM
[2] = curve of first compound, second compound 0.316 µM
[3] = curve of first compound, second compound 1 µM
[4] = curve of first compound, second compound 3.16 µM
[5] = curve of first compound, second compound 10 µM
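Further: compound exposure lasted seven days after spheroids formed for three days.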

IC50 (curve of first compound, second compound 0.03 µM): 42.3 nM
IC50 (curve of first compound, second compound 0.0949 µM): 38.1 nM
IC50 (curve of first compound, second compound 0.3 µM): 41.1 nM
IC50 (curve of first compound, second compound 0.949 µM): 83.4 nM
IC50 (curve of first compound, second compound 3 µM): 36.7 nM
SMILES: CNC(C)C(=O)NC1CN(S(=O)(=O)c2cccc(S(=O)(=O)N3CCC4CCC(C(=O)NC(c5ccccc5)c5ccccc5)N4C(=O)C(NC(=O)C(C)NC)C3)c2)CCC2CCC(C(=O)NC(c3ccccc3)c3ccccc3)N2C1=O (stereo unspecified) + CCN1C(C(=O)NC23CCC(C(=O)O)(CC2)CC3)C(c2cccc(Cl)c2F)C2(C(=O)Nc3cc(Cl)ccc32)C12CCCCC2
viability, T/C (second compound 0.03 µM, first compound 0.00316 µM): 87.4%
viability, T/C (second compound 0.03 µM, first compound 0.01 µM): 65.2%
viability, T/C (second compound 0.03 µM, first compound 0.0316 µM): 54%
viability, T/C (second compound 0.03 µM, first compound 0.1 µM): 39.5%
viability, T/C (second compound 0.03 µM, first compound 0.316 µM): 43.4%
viability, T/C (second compound 0.03 µM, first compound 1 µM): 31.9%
viability, T/C (second compound 0.0949 µM, first compound 0.00316 µM): 66.8%
viability, T/C (second compound 0.0949 µM, first compound 0.01 µM): 72.6%
viability, T/C (second compound 0.0949 µM, first compound 0.0316 µM): 45.8%
viability, T/C (second compound 0.0949 µM, first compound 0.1 µM): 42%
viability, T/C (second compound 0.0949 µM, first compound 0.316 µM): 31.1%
viability, T/C (second compound 0.0949 µM, first compound 1 µM): 26.3%
viability, T/C (second compound 0.3 µM, first compound 0.00316 µM): 70.9%
viability, T/C (second compound 0.3 µM, first compound 0.01 µM): 63.6%
viability, T/C (second compound 0.3 µM, first compound 0.0316 µM): 51.9%
viability, T/C (second compound 0.3 µM, first compound 0.1 µM): 43.9%
viability, T/C (second compound 0.3 µM, first compound 0.316 µM): 36.7%
viability, T/C (second compound 0.3 µM, first compound 1 µM): 38.5%
viability, T/C (second compound 0.949 µM, first compound 0.00316 µM): 71%
viability, T/C (second compound 0.949 µM, first compound 0.01 µM): 62.3%
viability, T/C (second compound 0.949 µM, first compound 0.0316 µM): 60.6%
viability, T/C (second compound 0.949 µM, first compound 0.1 µM): 49.2%
viability, T/C (second compound 0.949 µM, first compound 0.316 µM): 36.7%
viability, T/C (second compound 0.949 µM, first compound 1 µM): 34.4%
viability, T/C (second compound 3 µM, first compound 0.00316 µM): 67.6%
viability, T/C (second compound 3 µM, first compound 0.01 µM): 61.7%
viability, T/C (second compound 3 µM, first compound 0.0316 µM): 51.2%
viability, T/C (second compound 3 µM, first compound 0.1 µM): 41.1%
viability, T/C (second compound 3 µM, first compound 0.316 µM): 28.4%
viability, T/C (second compound 3 µM, first compound 1 µM): 31.4%

IC50 [1]: 558 nM
IC50 [2]: 260 nM
IC50 [3]: 107 nM
IC50 [4]: < 9.49 nM
IC50 [5]: 194 nM
SMILES: Cc1nc(N2CCC3(CC2)COC(C)C3N)c(CO)nc1Sc1ccnc(N)c1Cl (stereo unspecified) + Cc1c(S(C)(=O)=O)c(-c2cc(F)cc(N3CCN(c4ccc(NS(=O)(=O)c5ccc(NC(CCN6CCC(C(=O)OCCCP(=O)(O)O)CC6)CSc6ccccc6)c(S(=O)(=O)C(F)(F)F)c5)cc4)CC3)c2)c(-c2ccc(Cl)cc2)n1C(C)C
viability, T/C (second compound 0.1 µM, first compound 0.00949 µM): 71.1%
viability, T/C (second compound 0.1 µM, first compound 0.03 µM): 80.7%
viability, T/C (second compound 0.1 µM, first compound 0.0949 µM): 69.1%
viability, T/C (second compound 0.1 µM, first compound 0.3 µM): 61.6%
viability, T/C (second compound 0.1 µM, first compound 0.949 µM): 40.5%
viability, T/C (second compound 0.1 µM, first compound 3 µM): 23.5%
viability, T/C (second compound 0.316 µM, first compound 0.00949 µM): 68.3%
viability, T/C (second compound 0.316 µM, first compound 0.03 µM): 70%
viability, T/C (second compound 0.316 µM, first compound 0.0949 µM): 51.8%
viability, T/C (second compound 0.316 µM, first compound 0.3 µM): 55.2%
viability, T/C (second compound 0.316 µM, first compound 0.949 µM): 30.5%
viability, T/C (second compound 0.316 µM, first compound 3 µM): 17.1%
viability, T/C (second compound 1 µM, first compound 0.00949 µM): 71.4%
viability, T/C (second compound 1 µM, first compound 0.03 µM): 71%
viability, T/C (second compound 1 µM, first compound 0.0949 µM): 49.6%
viability, T/C (second compound 1 µM, first compound 0.3 µM): 34.6%
viability, T/C (second compound 1 µM, first compound 0.949 µM): 20.7%
viability, T/C (second compound 1 µM, first compound 3 µM): 21%
viability, T/C (second compound 3.16 µM, first compound 0.00949 µM): 48.8%
viability, T/C (second compound 3.16 µM, first compound 0.03 µM): 41.2%
viability, T/C (second compound 3.16 µM, first compound 0.0949 µM): 43.6%
viability, T/C (second compound 3.16 µM, first compound 0.3 µM): 26.4%
viability, T/C (second compound 3.16 µM, first compound 0.949 µM): 22.6%
viability, T/C (second compound 3.16 µM, first compound 3 µM): 10.3%
viability, T/C (second compound 10 µM, first compound 0.00949 µM): 76.8%
viability, T/C (second compound 10 µM, first compound 0.03 µM): 69.6%
viability, T/C (second compound 10 µM, first compound 0.0949 µM): 67.6%
viability, T/C (second compound 10 µM, first compound 0.3 µM): 38.5%
viability, T/C (second compound 10 µM, first compound 0.949 µM): 22.1%
viability, T/C (second compound 10 µM, first compound 3 µM): 8.76%

IC50 (compound alone, run of 09/27/2022): > 10000 nM
SMILES: Cc1c(S(C)(=O)=O)c(-c2cc(F)cc(N3CCN(c4ccc(NS(=O)(=O)c5ccc(NC(CCN6CCC(C(=O)OCCCP(=O)(O)O)CC6)CSc6ccccc6)c(S(=O)(=O)C(F)(F)F)c5)cc4)CC3)c2)c(-c2ccc(Cl)cc2)n1C(C)C (stereo unspecified)
viability, T/C (compound 0.1 µM): 77.8% [middle of 14 runs]
viability, T/C (compound 0.316 µM): 71.6% [middle of 14 runs]
viability, T/C (compound 1 µM): 65% [middle of 14 runs]
viability, T/C (compound 3.16 µM): 52.8% [middle of 14 runs]
viability, T/C (compound 10 µM): 73.2% [middle of 14 runs]

IC50 [1]: > 100 nM
IC50 [2]: > 100 nM
IC50 [3]: 9.33 nM
IC50 [4]: 0.337 nM
IC50 [5]: > 100 nM
SMILES: NC1CCC(NC2CC2c2ccccc2)CC1 (stereo unspecified) + Cc1c(S(C)(=O)=O)c(-c2cc(F)cc(N3CCN(c4ccc(NS(=O)(=O)c5ccc(NC(CCN6CCC(C(=O)OCCCP(=O)(O)O)CC6)CSc6ccccc6)c(S(=O)(=O)C(F)(F)F)c5)cc4)CC3)c2)c(-c2ccc(Cl)cc2)n1C(C)C
viability, T/C (second compound 0.1 µM, first compound 0.000316 µM): 72.5%
viability, T/C (second compound 0.1 µM, first compound 0.001 µM): 71.3%
viability, T/C (second compound 0.1 µM, first compound 0.00316 µM): 78.8%
viability, T/C (second compound 0.1 µM, first compound 0.01 µM): 68.5%
viability, T/C (second compound 0.1 µM, first compound 0.0316 µM): 74.6%
viability, T/C (second compound 0.1 µM, first compound 0.1 µM): 72.9%
viability, T/C (second compound 0.316 µM, first compound 0.000316 µM): 56.4%
viability, T/C (second compound 0.316 µM, first compound 0.001 µM): 61.5%
viability, T/C (second compound 0.316 µM, first compound 0.00316 µM): 61%
viability, T/C (second compound 0.316 µM, first compound 0.01 µM): 57.6%
viability, T/C (second compound 0.316 µM, first compound 0.0316 µM): 64.5%
viability, T/C (second compound 0.316 µM, first compound 0.1 µM): 61.8%
viability, T/C (second compound 1 µM, first compound 0.000316 µM): 53.3%
viability, T/C (second compound 1 µM, first compound 0.001 µM): 67.5%
viability, T/C (second compound 1 µM, first compound 0.00316 µM): 61.7%
viability, T/C (second compound 1 µM, first compound 0.01 µM): 47.9%
viability, T/C (second compound 1 µM, first compound 0.0316 µM): 44.4%
viability, T/C (second compound 1 µM, first compound 0.1 µM): 55.6%
viability, T/C (second compound 3.16 µM, first compound 0.000316 µM): 49.9%
viability, T/C (second compound 3.16 µM, first compound 0.001 µM): 47.4%
viability, T/C (second compound 3.16 µM, first compound 0.00316 µM): 43.6%
viability, T/C (second compound 3.16 µM, first compound 0.01 µM): 43%
viability, T/C (second compound 3.16 µM, first compound 0.0316 µM): 39.8%
viability, T/C (second compound 3.16 µM, first compound 0.1 µM): 47.5%
viability, T/C (second compound 10 µM, first compound 0.000316 µM): 58%
viability, T/C (second compound 10 µM, first compound 0.001 µM): 58.6%
viability, T/C (second compound 10 µM, first compound 0.00316 µM): 57.9%
viability, T/C (second compound 10 µM, first compound 0.01 µM): 57.6%
viability, T/C (second compound 10 µM, first compound 0.0316 µM): 57.1%
viability, T/C (second compound 10 µM, first compound 0.1 µM): 56%
